Values after ≈ are worked out from the molar mass of the structure shown. Read-outs that look alike come from different tables or passages of the source.
Assays:
[1] = test system: M. mucogenium group; assay: MIC (CLSI broth dilution), RGM isolates; assay type: cell-based
[2] = test system: M. fortuitum group; assay: MIC (CLSI broth dilution), RGM isolates; assay type: cell-based; conditions: Mycolicibacterium fortuitum
[3] = test system: M. immunogenum group; assay: MIC (CLSI broth dilution), RGM isolates; assay type: cell-based
[4] = test system: M. smegmatis group; assay: MIC (CLSI broth dilution), RGM isolates; assay type: cell-based; conditions: Mycolicibacterium smegmatis
[5] = test system: rapid-growing mycobacteria (RGM) isolates; assay: MIC (CLSI broth dilution), all RGM isolates; assay type: cell-based, nontuberculous mycobacteria

SMILES: CC[C@H]1OC(=O)[C@H](C)[C@@H](O[C@H]2C[C@@](C)(OC)[C@@H](O)[C@H](C)O2)[C@H](C)[C@@H](O[C@@H]2O[C@H](C)C[C@H](N(C)C)[C@H]2O)[C@](C)(OC)C[C@@H](C)C(=O)[C@H](C)[C@@H](O)[C@]1(C)O [clarithromycin]
- MIC ([1]; 336 h, isolate 47, M. phocaicum, extended reading, up to/including 14 days, read-out: MIC, CLA Extended): 0.5 µg/mL (≈ 0.668 µM)
- MIC ([1]; 336 h, isolate 48, M. phocaicum, extended reading, up to/including 14 days, read-out: MIC, CLA Extended): 0.5 µg/mL (≈ 0.668 µM)
- MIC ([1]; isolate 39, M. mucogenicum, initial reading, generally 3-4 days, read-out: MIC, CLA Initial): ≤ 0.06 µg/mL
- MIC ([1]; isolate 40, M. mucogenicum, initial reading, generally 3-4 days, read-out: MIC, CLA Initial): 0.25 µg/mL (≈ 0.334 µM)
- MIC ([1]; isolate 41, M. mucogenicum, initial reading, generally 3-4 days, read-out: MIC, CLA Initial): 0.5 µg/mL (≈ 0.668 µM)
- MIC ([1]; isolate 42, M. mucogenicum, initial reading, generally 3-4 days, read-out: MIC, CLA Initial): ≤ 0.06 µg/mL
- MIC ([1]; isolate 43, M. phocaicum, initial reading, generally 3-4 days, read-out: MIC, CLA Initial): 0.25 µg/mL (≈ 0.334 µM)
- MIC ([1]; isolate 44, M. phocaicum, initial reading, generally 3-4 days, read-out: MIC, CLA Initial): 0.25 µg/mL (≈ 0.334 µM)
- MIC ([1]; isolate 45, M. phocaicum, initial reading, generally 3-4 days, read-out: MIC, CLA Initial): 0.25 µg/mL (≈ 0.334 µM)
- MIC ([1]; isolate 46, M. phocaicum, initial reading, generally 3-4 days, read-out: MIC, CLA Initial): ≤ 0.06 µg/mL
- MIC ([1]; isolate 47, M. phocaicum, initial reading, generally 3-4 days, read-out: MIC, CLA Initial): 0.25 µg/mL (≈ 0.334 µM)
- MIC ([1]; isolate 48, M. phocaicum, initial reading, generally 3-4 days, read-out: MIC, CLA Initial): 0.12 µg/mL (≈ 0.16 µM)
- MIC ([2]; 168 h, isolate 23, M. fortuitum, extended reading (7 d), read-out: MIC, CLA Extended): > 32 µg/mL
- MIC ([2]; 168 h, isolate 25, M. fortuitum, extended reading (7 d), read-out: MIC, CLA Extended): > 32 µg/mL
- MIC ([2]; 168 h, isolate 29, M. porcinum/M. boenickei, extended reading (7 d), read-out: MIC, CLA Extended): > 32 µg/mL
- MIC ([2]; 240 h, isolate 24, M. fortuitum, extended reading (10 d), read-out: MIC, CLA Extended): > 32 µg/mL
- MIC ([2]; 240 h, isolate 27, M. porcinum, extended reading (10 d), read-out: MIC, CLA Extended): > 32 µg/mL
- MIC ([2]; 240 h, isolate 28, M. porcinum/M. boenickei, extended reading (10 d), read-out: MIC, CLA Extended): > 32 µg/mL
- MIC ([2]; 336 h, isolate 26, M. porcinum, extended reading, up to/including 14 days, read-out: MIC, CLA Extended): > 32 µg/mL
- MIC ([2]; 336 h, isolate 30, M. porcinum/M. boenickei, extended reading, up to/including 14 days, read-out: MIC, CLA Extended): > 32 µg/mL
- MIC ([2]; 336 h, isolate 31, M. senegalense, extended reading, up to/including 14 days, read-out: MIC, CLA Extended): 0.5 µg/mL (≈ 0.668 µM)
- MIC ([2]; 336 h, isolate 32, M. senegalense, extended reading, up to/including 14 days, read-out: MIC, CLA Extended): 0.5 µg/mL (≈ 0.668 µM)
- MIC ([2]; 336 h, isolate 33, M. senegalense, extended reading, up to/including 14 days, read-out: MIC, CLA Extended): 1 µg/mL (≈ 1.34 µM)
- MIC ([2]; 336 h, isolate 34, M. senegalense, extended reading, up to/including 14 days, read-out: MIC, CLA Extended): 1 µg/mL (≈ 1.34 µM)
- MIC ([2]; isolate 23, M. fortuitum, initial reading, generally 3-4 days, read-out: MIC, CLA Initial): 1 µg/mL (≈ 1.34 µM)
- MIC ([2]; isolate 24, M. fortuitum, initial reading, generally 3-4 days, read-out: MIC, CLA Initial): 0.5 µg/mL (≈ 0.668 µM)
- MIC ([2]; isolate 25, M. fortuitum, initial reading, generally 3-4 days, read-out: MIC, CLA Initial): 2 µg/mL (≈ 2.67 µM)
- MIC ([2]; isolate 26, M. porcinum, initial reading, generally 3-4 days, read-out: MIC, CLA Initial): 0.5 µg/mL (≈ 0.668 µM)
- MIC ([2]; isolate 27, M. porcinum, initial reading, generally 3-4 days, read-out: MIC, CLA Initial): 2 µg/mL (≈ 2.67 µM)
- MIC ([2]; isolate 28, M. porcinum/M. boenickei, initial reading, generally 3-4 days, read-out: MIC, CLA Initial): 8 µg/mL (≈ 10.7 µM)
- MIC ([2]; isolate 29, M. porcinum/M. boenickei, initial reading, generally 3-4 days, read-out: MIC, CLA Initial): 4 µg/mL (≈ 5.35 µM)
- MIC ([2]; isolate 30, M. porcinum/M. boenickei, initial reading, generally 3-4 days, read-out: MIC, CLA Initial): 1 µg/mL (≈ 1.34 µM)
- MIC ([2]; isolate 31, M. senegalense, initial reading, generally 3-4 days, read-out: MIC, CLA Initial): 0.12 µg/mL (≈ 0.16 µM)
- MIC ([2]; isolate 32, M. senegalense, initial reading, generally 3-4 days, read-out: MIC, CLA Initial): 0.12 µg/mL (≈ 0.16 µM)
- MIC ([2]; isolate 33, M. senegalense, initial reading, generally 3-4 days, read-out: MIC, CLA Initial): 0.12 µg/mL (≈ 0.16 µM)
- MIC ([2]; isolate 34, M. senegalense, initial reading, generally 3-4 days, read-out: MIC, CLA Initial): ≤ 0.06 µg/mL
- MIC ([3]; 336 h, isolate 35, M. immunogenum, extended reading, up to/including 14 days, read-out: MIC, CLA Extended): 1 µg/mL (≈ 1.34 µM)
- MIC ([3]; 336 h, isolate 36, M. immunogenum, extended reading, up to/including 14 days, read-out: MIC, CLA Extended): 2 µg/mL (≈ 2.67 µM)
- MIC ([3]; 336 h, isolate 37, M. immunogenum, extended reading, up to/including 14 days, read-out: MIC, CLA Extended): 2 µg/mL (≈ 2.67 µM)
- MIC ([3]; 336 h, isolate 38, M. immunogenum, extended reading, up to/including 14 days, read-out: MIC, CLA Extended): 2 µg/mL (≈ 2.67 µM)
- MIC ([3]; isolate 35, M. immunogenum, initial reading, generally 3-4 days, read-out: MIC, CLA Initial): 0.25 µg/mL (≈ 0.334 µM)
- MIC ([3]; isolate 36, M. immunogenum, initial reading, generally 3-4 days, read-out: MIC, CLA Initial): 0.12 µg/mL (≈ 0.16 µM)
- MIC ([3]; isolate 37, M. immunogenum, initial reading, generally 3-4 days, read-out: MIC, CLA Initial): 1 µg/mL (≈ 1.34 µM)
- MIC ([3]; isolate 38, M. immunogenum, initial reading, generally 3-4 days, read-out: MIC, CLA Initial): 0.5 µg/mL (≈ 0.668 µM)
- MIC ([4]; 144 h, isolate 49, M. goodii, extended reading (6 d), read-out: MIC, CLA Extended): > 32 µg/mL
- MIC ([4]; isolate 49, M. goodii, initial reading, generally 3-4 days, read-out: MIC, CLA Initial): 16 µg/mL (≈ 21.4 µM)
- MIC ([4]; isolate 50, M. wolinskyi, initial reading, generally 3-4 days, read-out: MIC, CLA Initial): > 32 µg/mL
- MIC50 ([5]; 336 h, all RGM isolates, extended reading, up to/including 14 days, read-out: MIC50, CLA Extended): 2 µg/mL (≈ 2.67 µM)
- MIC90 ([5]; 336 h, all RGM isolates, extended reading, up to/including 14 days, read-out: MIC90, CLA Extended): > 32 µg/mL
- MIC50 ([5]; all 50 RGM isolates, initial reading, generally 3-4 days, read-out: MIC50, CLA Initial): 0.25 µg/mL (≈ 0.334 µM)
- MIC90 ([5]; all 50 RGM isolates, initial reading, generally 3-4 days, read-out: MIC90, CLA Initial): 2 µg/mL (≈ 2.67 µM)

Reference: patent US20250332178A1, “METHODS OF TREATING MYCOBACTERIAL INFECTIONS USING TETRACYCLINE COMPOUNDS” (priority 2018, published 2025)
